Experiments:
[1] = system: ARPE-19 cells stably expressing XBP1 (a.a. 1-376); assay: Cellular XBP1 splicing assay (NanoLuc luciferase, thapsigargin); assay type: cell-based; details: thapsigargin 150 nM
Outline: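 ARPE-19 cells carrying an XBP1(1-376)-NanoLuc splicing reporter were pretreated with compound (10-point ½-log series, 0.117% DMSO) for 30 min, then stressed with 150 nM thapsigargin for 4 h at 37° C. Luminescence was read, and IC50 values came from sigmoidal fits of percent inhibition of control.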

IRE1α = molecular target: T1, IRE1α (Homo sapiens, UniProt O75460); assay: Biochemical assay: inhibition of RNase activity of IRE1α; details: enzyme 0.325 nM, substrate 100 nM, 20 minutes
T1 construct: purchased Signal Chem E31-11G
T1 sequence (O75460 468-977 limits assumed): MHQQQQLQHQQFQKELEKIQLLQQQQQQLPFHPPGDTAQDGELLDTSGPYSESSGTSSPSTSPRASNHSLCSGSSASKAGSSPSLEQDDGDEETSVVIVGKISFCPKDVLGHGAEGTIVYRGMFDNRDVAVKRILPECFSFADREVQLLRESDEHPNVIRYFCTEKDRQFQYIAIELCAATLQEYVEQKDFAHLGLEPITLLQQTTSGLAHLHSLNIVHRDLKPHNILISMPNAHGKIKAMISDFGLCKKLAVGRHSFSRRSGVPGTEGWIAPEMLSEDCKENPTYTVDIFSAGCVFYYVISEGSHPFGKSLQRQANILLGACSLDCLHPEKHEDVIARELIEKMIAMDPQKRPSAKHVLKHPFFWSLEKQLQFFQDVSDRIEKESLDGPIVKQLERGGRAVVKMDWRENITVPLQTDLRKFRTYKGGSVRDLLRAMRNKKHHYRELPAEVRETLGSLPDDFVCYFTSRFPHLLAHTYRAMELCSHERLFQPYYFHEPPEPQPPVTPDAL
Outline: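 RNase cleavage monitored as dequenching of a 5′ Alexa Fluor 647/3′ quencher RNA oligo (100 nM), stopped with 5 M urea after 20 min at room temperature. Enzyme 0.325 nM, preceded by 30 min compound pre-incubation; buffer Tris/MgCl2/KCl/DTT/Tween, 4% DMSO final. IC50 from curve fit of % inhibition.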

Row | SMILES | IC50 ([1]; 4 hour) | IC50 (IRE1α) | IC50 ([1]; Homo sapiens, ARPE-19, 4 h)
1 | COCCN[C@H]1CC[C@H](c2cnc(N)c3c(-c4cc(F)c(NS(=O)(=O)c5cc(OC)ccc5Cl)cc4F)nn(C(C)C)c32)CC1 [Compound A2, N-(4-(4-amino-1-isopropyl-7-((1r,4r)-4-((2-methoxyethyl)amino)cyclohexyl)-1H-pyrazolo[4,3-c]pyridin-3-yl)-2,5-difluorophenyl)-2-chloro-5-methoxybenzenesulfonamide] | – | 4.6 nM | 3 nM
2 | CC(C)n1nc(-c2cc(F)c(NS(=O)(=O)c3ccccc3F)cc2F)c2c(N)ncc([C@H]3CC[C@H](N4CCOCC4)CC3)c21 [Compound A3] | – | 16 nM | 15 nM
3 | COCCN[C@H]1CC[C@H](c2cnc(N)c3c(-c4cc(F)c(NS(=O)(=O)c5cc(Cl)ccc5F)cc4F)nn(C(C)C)c32)CC1 [Compound A4, N-(4-(4-amino-1-isopropyl-7-((1r,4r)-4-((2-methoxyethyl)amino)cyclohexyl)-1H-pyrazolo[4,3-c]pyridin-3-yl)-2,5-difluorophenyl)-5-chloro-2-fluorobenzenesulfonamide] | – | 1.3 nM | 10 nM
4 | COCCN[C@H]1CC[C@H](c2cnc(N)c3c(-c4cc(F)c(NS(=O)(=O)c5cc(OC(F)F)ccc5F)cc4F)nn(C(C)C)c32)CC1 [Compound A5, N-(4-(4-amino-1-isopropyl-7-((1r,4r)-4-((2-methoxyethyl)amino)cyclohexyl)-1H-pyrazolo[4,3-c]pyridin-3-yl)-2,5-difluorophenyl)-5-(difluoromethoxy)-2-fluorobenzenesulfonamide] | – | 1.9 nM | 25 nM
5 | COCCN[C@H]1CC[C@H](c2cnc(N)c3c(-c4ccc(NS(=O)(=O)c5ccccc5F)c(F)c4)nn(C(C)C)c32)CC1 [Compound A6, N-(4-(4-amino-1-isopropyl-7-((1r,4r)-4-((2-methoxyethyl)amino)cyclohexyl)-1H-pyrazolo[4,3-c]pyridin-3-yl)-2-fluorophenyl)-2-fluorobenzenesulfonamide] | – | 2.6 nM | 2.7 nM
6 | COCCN[C@H]1CC[C@H](c2cnc(N)c3c(-c4cc(F)c(NS(=O)(=O)c5cccc(OC)c5F)cc4F)nn(C(C)C)c32)CC1 [Compound A7, N-(4-(4-amino-1-isopropyl-7-((1r,4r)-4-((2-methoxyethyl)amino)cyclohexyl)-1H-pyrazolo[4,3-c]pyridin-3-yl)-2,5-difluorophenyl)-2-fluoro-3-methoxybenzenesulfonamide] | – | 2.9 nM | 24 nM
7 | CCOc1ccc(F)c(S(=O)(=O)Nc2cc(F)c(-c3nn(C(C)C)c4c3c(N)ncc4[C@H]3CC[C@H](NCCOC)CC3)cc2F)c1 [Compound A8, N-(4-(4-amino-1-isopropyl-7-((1r,4r)-4-((2-methoxyethyl)amino)cyclohexyl)-1H-pyrazolo[4,3-c]pyridin-3-yl)-2,5-difluorophenyl)-5-ethoxy-2-fluorobenzenesulfonamide] | – | 1.9 nM | 3.9 nM
8 | COCCN[C@H]1CC[C@H](c2cnc(N)c3c(-c4cc(F)c(NS(=O)(=O)c5ccc(OC)cc5)cc4F)nn(C(C)C)c32)CC1 [Compound A9, N-(4-(4-amino-1-isopropyl-7-((1r,4r)-4-((2-methoxyethyl)amino)cyclohexyl)-1H-pyrazolo[4,3-c]pyridin-3-yl)-2,5-difluorophenyl)-4-methoxybenzenesulfonamide] | – | 20 nM | 110 nM
9 | COCCN[C@H]1CC[C@H](c2cnc(N)c3c(-c4cc(F)c(NS(=O)(=O)c5ccccc5OC)cc4F)nn(C(C)C)c32)CC1 [Compound A10, N-(4-(4-amino-1-isopropyl-7-((1r,4r)-4-((2-methoxyethyl)amino)cyclohexyl)-1H-pyrazolo[4,3-c]pyridin-3-yl)-2,5-difluorophenyl)-2-methoxybenzenesulfonamide] | – | 240 nM | 19 nM
10 | COCCN[C@H]1CC[C@H](c2cnc(N)c3c(-c4cc(F)c(NS(=O)(=O)c5cccc(OC)c5)cc4F)nn(C(C)C)c32)CC1 [Compound A11, N-(4-(4-amino-1-isopropyl-7-((1r,4r)-4-((2-methoxyethyl)amino)cyclohexyl)-1H-pyrazolo[4,3-c]pyridin-3-yl)-2,5-difluorophenyl)-3-methoxybenzenesulfonamide] | – | 8.9 nM | 15 nM
11 | CC(C)n1nc(-c2ccc(NS(=O)(=O)c3ccccc3F)c(F)c2)c2c(N)ncc([C@H]3CC[C@@H](NC4COC4)CC3)c21 [Compound A12, N-(4-(4-amino-1-isopropyl-7-((1s,4s)-4-(oxetan-3-ylamino)cyclohexyl)-1H-pyrazolo[4,3-c]pyridin-3-yl)-2-fluorophenyl)-2-fluorobenzenesulfonamide] | – | 440 nM | 1400 nM
12 | COCCN[C@H]1CC[C@H](c2cnc(N)c3c(-c4cc(F)c(NS(=O)(=O)c5ccc(F)c(OC)c5)cc4F)nn(C(C)C)c32)CC1 [Compound A13, N-(4-(4-amino-1-isopropyl-7-((1r,4r)-4-((2-methoxyethyl)amino)cyclohexyl)-1H-pyrazolo[4,3-c]pyridin-3-yl)-2,5-difluorophenyl)-4-fluoro-3-methoxybenzenesulfonamide] | – | 17 nM | 78 nM
13 | COCCN[C@H]1CC[C@H](c2cnc(N)c3c(-c4cc(F)c(NS(=O)(=O)c5ccc(Cl)cc5)cc4F)nn(C(C)C)c32)CC1 [Compound A14, N-(4-(4-amino-1-isopropyl-7-((1r,4r)-4-((2-methoxyethyl)amino)cyclohexyl)-1H-pyrazolo[4,3-c]pyridin-3-yl)-2,5-difluorophenyl)-4-chlorobenzenesulfonamide] | – | 21 nM | 240 nM
14 | COCCN[C@H]1CC[C@H](c2cnc(N)c3c(-c4cc(F)c(NS(=O)(=O)c5ccc(F)cc5Cl)cc4F)nn(C(C)C)c32)CC1 [Compound A15, N-(4-(4-amino-1-isopropyl-7-((1r,4r)-4-((2-methoxyethyl)amino)cyclohexyl)-1H-pyrazolo[4,3-c]pyridin-3-yl)-2,5-difluorophenyl)-2-chloro-4-fluorobenzenesulfonamide] | – | 6.6 nM | 13 nM

The next lines start with the values.

Row | IC50 ([1]; 4 hour) | IC50 (IRE1α) | IC50 ([1]; Homo sapiens, ARPE-19, 4 h) | SMILES
15 | 28 nM | 2 nM | – | COCCNC1CC=C(c2cnc(N)c3c(-c4ccc(NS(=O)(=O)Cc5ccccc5Cl)c(F)c4)nn(C(C)C)c23)CC1 (single isomer, unassigned) [Compound B54, N-(4-(4-amino-1-isopropyl-7-(4-((2-methoxyethyl)amino)cyclohex-1-en-1-yl)-1H-pyrazolo[4,3-c]pyridin-3-yl)-2-fluorophenyl)-1-(2-chlorophenyl)methanesulfonamide]
16 | 9 nM | 0.9 nM | – | COCCNC1CC=C(c2cnc(N)c3c(-c4ccc(NS(=O)(=O)Cc5ccccc5Cl)c(F)c4)nn(C(C)C)c23)CC1 (single isomer, unassigned) [Compound B55, N-(4-(4-amino-1-isopropyl-7-(4-((2-methoxyethyl)amino)cyclohex-1-en-1-yl)-1H-pyrazolo[4,3-c]pyridin-3-yl)-2-fluorophenyl)-1-(2-chlorophenyl)methanesulfonamide]
17 | 250 nM | 120 nM | – | CC(C)n1nc(-c2ccc(NS(=O)(=O)c3ccccc3F)c(F)c2)c2c(N)ncc(C3=CCC(NC4COC4)CC3)c21 (single isomer, unassigned) [Compound B58, N-(4-(4-amino-1-isopropyl-7-(4-(oxetan-3-ylamino)cyclohex-1-en-1-yl)-1H-pyrazolo[4,3-c]pyridin-3-yl)-2-fluorophenyl)-2-fluorobenzenesulfonamide]
18 | 110 nM | 34 nM | – | CCn1nc(-c2ccc(NS(=O)(=O)c3ccccc3Cl)c(F)c2)c2c(N)ncc(C3=CCC(NC4COC4)CC3)c21 (single isomer, unassigned) [Compound B61, N-(4-(4-amino-1-ethyl-7-(4-(oxetan-3-ylamino)cyclohex-1-en-1-yl)-1H-pyrazolo[4,3-c]pyridin-3-yl)-2-fluorophenyl)-2-chlorobenzenesulfonamide]
19 | 400 nM | 75 nM | – | CCn1nc(-c2ccc(NS(=O)(=O)c3ccccc3Cl)c(F)c2)c2c(N)ncc(C3=CCC(NC4COC4)CC3)c21 (single isomer, unassigned) [Compound B62, N-(4-(4-amino-1-ethyl-7-(4-(oxetan-3-ylamino)cyclohex-1-en-1-yl)-1H-pyrazolo[4,3-c]pyridin-3-yl)-2-fluorophenyl)-2-chlorobenzenesulfonamide]
20 | – | 7.8 nM | 77 nM | COCCN[C@H]1CC[C@H](c2cnc(N)c3c(-c4cc(F)c(NS(=O)(=O)c5ccc(Cl)cc5F)cc4F)nn(C(C)C)c32)CC1 [Compound A16, N-(4-(4-amino-1-isopropyl-7-((1r,4r)-4-((2-methoxyethyl)amino)cyclohexyl)-1H-pyrazolo[4,3-c]pyridin-3-yl)-2,5-difluorophenyl)-4-chloro-2-fluorobenzenesulfonamide]
21 | – | 0.9 nM | 12 nM | COCCN[C@H]1CC[C@H](c2cnc(N)c3c(-c4cc(F)c(NS(=O)(=O)Cc5ccc(F)cc5)cc4F)nn(C(C)C)c32)CC1 [Compound A17, N-(4-(4-amino-1-isopropyl-7-((1r,4r)-4-((2-methoxyethyl)amino)cyclohexyl)-1H-pyrazolo[4,3-c]pyridin-3-yl)-2,5-difluorophenyl)-1-(4-fluorophenyl)methanesulfonamide]
22 | – | 12 nM | 37 nM | COCCN[C@H]1CC[C@H](c2cnc(N)c3c(-c4ccc(NS(=O)(=O)c5ccccc5F)cc4F)nn(C(C)C)c32)CC1 [Compound A18]

Reference: patent US20220153734A1, “Pyrazolopyridine Compounds For IRE1 Inhibition” (Optikira, LLC, priority 2019, published 2022)
